Assay [1] concerns Frizzled homolog 1 (FZD1). Put plainly: FZD1 expression in keratinocytes by Q-RT-PCR. In kind it is cell-based. The settings on record: human neonatal keratinocyte cells, 10 μM, 24 hours, FIG. 3. The method, then:
(§1) Human neonatal keratinocyte cells purchased from Welskin Co (Seoul, Korea) were subcultured in a 25 cm^2 T-flask and incubated in a CO2 incubator under conditions of 37° C. and 5% CO2. Generally, the experiment was carried out after the cells have been subcultured for 2-3 passages. According to the method of Lonza, Inc. (Walkersville, Md., USA), the medium used in the cell culture was prepared by adding a KGM-2 bullet kit (bovine pituitary extract (2 mg), human epidermal growth factor (0.5 ml), insulin (0.5 ml), hydrocortisone (0.5 mg), transferrin (0.5 mg), epinephrine (0.5 mg), and gentamicin sulfate+amphotericin-B (GA-1000, 0.5 ml)) to 500 ml of KBM-2 medium (Clonetics CC-3103). When a confluence of about 50% was shown 2 days after the subculture of the cells, the serum was starved. After 24 hours, the cells were treated with 10 μM of each of a negative control, an Angelica gigas Nakai extract (positive control), daidzein and Examples 1-6 for 24 hours. […]
(§2) Then, RNA of the cells was isolated using Trizol reagent (Invitrogen, Carlsbad, Calif., USA). The isolated RNA was purified with Qiagen RNeasy kit (Qiagen, Valencia, Calif.), and then the quality of the RNA was confirmed using the Agilent 2100 Bio-Analyzer (Agilent Technologies, Santa Clara, Calif., USA). cDNA was synthesized from the RNA using a superscript reverse transcriptase (RT) kit (Invitrogen, Carlsbad, Calif.) and was quantitatively analyzed through a real time-reverse transcription polymerase chain reaction (Q-RT-PCR). The changes in the expression patterns of genes in the keratinocyte cells were analyzed using the TaqMan®gene expression assay kit (Applied Biosystems, Foster City, Calif.), Dickkopf homolog 3 (DKK3)-HS00247426_m1, and Frizzled homolog 1 (FZD1)-HS00268943_s1 (TagMan primer catalog name), thus confirming the expression levels of DKK3 and FZD1.

Assay [2] deals with Human keratinocyte HaCaT cells. Description: Keratinocyte division inhibition, BrdU colorimetric ELISA. Type of assay: cell-based. The settings on record: HaCaT cells, 1, 10 and 50 μM, 48 hours, BrdU analysis, FIG. 1; for keratinocyte division-inhibiting effect: compared with daidzein. The procedure: Human keratinocyte HaCaT cells were added to 10% fetal bovine serum-containing DMEM medium [Dulbecco's modified Eagle's Medium; Gibco 1210-0038] and cultured in a 24-well plate at a confluence of 70%. The HaCaT cells were treated with 1, 10 and 50 μM of each of 4′,6,7-trihydroxyisoflavone and 3′,4′,7-trihydroxyisoflavone, and after 48 hours, subjected to BrdU analysis. At 12 hours before the BrdU analysis was carried out, BrdU labeling was carried out. The BrdU analysis was carried out using a BrdU colorimetric ELISA kit (Roche) according to the manufacturer's instruction. First, the culture broth was treated with BrdU solution for 12 hours, and then the medium was removed. The cells were fixed, and a peroxidase-conjugated BrdU antibody was added thereto, after which the cells were treated with a substrate solution to induce color development. The degree of color development was measured with an ELISA reader. As positive controls, calcium known to be used for the differentiation of keratinocytes, and troglitazone (TGZ) known to inhibit cell division and induce cell differentiation were used.
In general terms: An ELISA detects its analyte on a solid surface through an enzyme-linked reagent.

Assay [3] concerns Dickkopf homolog 3 (DKK3). Put plainly: DKK3 expression in keratinocytes by Q-RT-PCR. In kind it is cell-based. Particulars: human neonatal keratinocyte cells, 10 μM, 24 hours, FIG. 2. The method, then:
as §1, §2

Assay [4] concerns TNF-alpha. Description: Anti-inflammatory effect: TNF-alpha gene expression in LPS-treated HaCaT cells. Type of assay: cell-based, human. Particulars: 10 μM pretreatment 2 hours, 1 μg/ml LPS 8 hours, mRNA normalized to GAPDH, FIG. 4. The method, then:
In this Example, human keratinocyte HaCaT cells obtained from the Korean Cell Line Bank (Seoul, Korea) were used. The HaCaT cells were seeded into a DMEM medium containing 10% (v/v) FBS, 100 U/ml penicillin and 100 μg/ml streptomycin and were incubated in an animal cell incubator under conditions of 37° C. and 5% CO2. The HaCaT cells prepared at 1.5×10^6 cells/well were adapted in FBS-free medium for 3 hours. The cells were pretreated with 10 μM of each of 4′,6,7-trihydroxyisoflavone, 3′,4′,7-trihydroxyisoflavone, daidzein and TGZ for 2 hours, 1 μg/ml of lipopolysaccharide (LPS) was added thereto, and then the cells were additionally cultured for 8 hours. Total RNA of the cells was extracted using TRIzol™ (GIBCO BRL, MD, USA) and stored at −80° C. 1 μg of the total RNA was added to 25 μl of a reverse transcription reaction buffer containing 50 mM Tris-HCl (pH 8.3), 75 mM KCl, 3 mM MgCl2, 0.1 M DTT, 10 mM dNTP and 40 U/μl RNase inhibitor. 0.5 μg/μl oligo(dT)16 primers and 200 U SuperScript per Script II reverse transcriptase (GiboBRL) were added thereto, and the total RNA was subjected to a reverse transcription reaction at 42° C. for 1 hour. Then, 2.5 μl of the reverse transcription reaction solution was added to […] of a PCR reaction buffer containing 0.04 U AmpliTaq DNA polymerase (Perkin Elmer, Shelton, Conn.), 50 mM Tris-HCl (pH 8.3), 0.25 mg/ml bovine serum albumin, 3 mM MgCl2, 0.25 mM dNTPs and a 1/50,000 dilution of SYBR green I (Molecular Probes, Eugene, Oreg.), and 10 μM primers were added thereto. Then, a PCR reaction was subjected to PCR amplification. The PCR reaction consisted of 30 cycles of denaturation at 94° C. for 30 sec, annealing at 53° C. for 30 sec and extension at 72° C. for 1 min. The relative mRNA levels were analyzed by measuring the change in fluorescence of SYBR green I using ICycler software. As an internal standard, GAPDH (glyceraldehyde 3-phosphate dehydrogenase) was used to normalize the quantitative expression level of the gene TNF-alpha.

Results on three molecules are retold here after US20110224291A1, “SKIN EXTERNAL COMPOSITION FOR INHIBITING EPIDERMAL HYPERPROLIFERATION AND ALLEVIATING INFLAMMATORY SKIN DISEASES CONTAINING ORTHODIHYDROXYISOFLAVONE DERIVATIVES” (priority 2008, published 2011).

Structures are written as SMILES.

Regarding `O=c1c(-c2ccc(O)c(O)c2)coc2cc(O)ccc12` [3′,4′,7-trihydroxyisoflavone], the “expression level of FZD1” value in assay [1] was “effectively promoted the expression”. Besides, in assay [2], the “concentration dependence of inhibition of keratinocyte division” value is listed as “concentration-dependent manner” and the keratinocyte division-inhibiting effect result is “significantly superior to that of daidzein”. Further, the “expression level of DKK3” value in assay [3] was “effectively promoted the expression”. Besides, in assay [4], the “expression of the TNF-alpha gene” value is recorded as “strongly inhibited”.

As to `O=c1c(-c2ccc(O)cc2)coc2cc(O)c(O)cc12` [4′,6,7-trihydroxyisoflavone], the “expression level of FZD1” value in assay [1] was “effectively promoted the expression”. Moreover, in assay [2], the “concentration dependence of inhibition of keratinocyte division” value was “concentration-dependent manner” and the keratinocyte division-inhibiting effect result is “significantly superior to that of daidzein”. Besides, the “expression level of DKK3” value in assay [3] was “effectively promoted the expression”. For the same molecule, the “expression of the TNF-alpha gene” value in assay [4] is listed as “strongly inhibited”.

Turning to `O=c1c(-c2ccc(O)cc2)coc2cc(O)ccc12` [daidzein, reference compound], the “expression level of FZD1” value in assay [1] was “significantly lower than those in the groups treated with the ortho-dihydroxyisoflavone derivatives”. The “expression level of DKK3” value in assay [3] is “significantly lower than those in the groups treated with the ortho-dihydroxyisoflavone derivatives”. Moreover, the “expression of the TNF-alpha gene” value in assay [4] is “slightly inhibited”.
